Series [1] in a line: Compound stability in human liver microsomes. The settings on record: pH 7.4; for half-life at 5 μM: human liver microsomes 0.5 mg protein/mL, compound 5 μM, NADPH 1.0 mM, 37° C., read-out: Human T1/2; for CLint scaled at 5 μM: human liver microsomes, in vivo CLint extrapolated. The format is in vitro ADME. On the procedure:
(§1) Human or rat liver microsomes incubations were conducted in duplicate in polypropylene tubes. The typical incubation mixtures consisted of human or rat liver microsomes (0.5 mg protein/mL), compounds of interest (5 μM) and NADPH (1.0 mM) in a total volume of 200 μL potassium phosphate buffer (PBS, 100 mM, pH=7.4). Compounds were dissolved in DMSO and diluted with PBS such that the final concentration of DMSO was 0.05%. The enzymatic reactions were commenced with the addition of […] after a 3-min preincubation and incubated in a water bath open to the air at 37° C. Reactions were terminated at various time points (0, 5, 10, 15, 30, 60 min) by adding equal volume of ice-cold acetonitrile. The samples were stored at −80° C. until LC/MS/MS assays.
(§2) The concentrations of compounds in the incubation mixtures of human or rat liver microsomes were determined by a LC/MS/MS method. The ranges of the linearity in the concentration range were determined for each tested compounds.
(§3) A parallel incubation was performed using denatured microsomes as the negative control, and reactions were terminated at various time points (0, 15, 60 min) after incubation at 37° C.
(§4) Dextromethorphan (70 μM) was selected as the positive control, and reactions were terminated at various time points (0, 5, 10, 15, 30, 60 min) after incubation at 37° C. Both positive and negative control samples were included in each assay to ensure the integrity of the microsomal incubation system.
(§5) The concentrations of compounds in human or rat liver microsome incubations were plotted as a percentage of the relevant zero time point control for each reaction. The in vivo CLint were extrapolated (ref: Naritomi Y, Terashita S, Kimura S, Suzuki A, Kagayama A, Sugiyama Y. Prediction of human hepatic clearance from in vivo animal experiments and in vitro metabolic studies with liver microsomes from animals and humans. Drug Metabolism and Disposition 2001, 29: 1316-1324).

Series [2] in a line: Compound stability in rat liver microsomes. The class given is in vitro ADME. The settings on record: pH 7.4; for half-life at 5 μM: rat liver microsomes 0.5 mg protein/mL, compound 5 μM, NADPH 1.0 mM, 37° C., read-out: Rat T1/2; for CLint scaled at 5 μM: rat liver microsomes, in vivo CLint extrapolated. As to the method:
as §1, §2, §3, §4, §5

Series [3] can be described thus: Pharmacokinetic profiles in rats after intravenous and oral administration. The format is in vivo. The settings on record: for F: oral dose generally 5 or 10 mg/kg; for AUC(0-t) / half-life / Vd: rat, plasma; for Vd: read-out: Vss. On the procedure:
The compounds disclosed herein are assessed in pharmacokinetic studies in mice, rats, dogs or monkeys. The compounds are administered as a water solution, 2% HPMC+1% TWEEN® 80 in water solution, 5% DMSO+5% solutol in saline, 4% MC suspension or capsule. For the intravenous administration, the animals are generally given at 1 or 2 mg/kg dose. For the oral (p.o.) dosing, mice and rats are generally given 5 or 10 mg/kg dose, and dogs and monkeys are generally given 10 mg/kg dose. The blood samples (0.3 mL) are drawn at 0.25, 0.5, 1.0, 2.0, 3.0, 4.0, 6.0, 8.0, 12 and 24 h time points or 0.083, 0.25, 0.5, 1.0, 2.0, 4.0, 6.0, 8.0 and 24 h time points and centrifuged at 3,000 or 4000 rpm for 2 to 10 min. The plasma solutions are collected, stored at −20° C. or −70° C. until analyzed by LC/MS/MS as described above.

The next series deals with T1, mTOR (h) (Homo sapiens, UniProt P42345).
T1 construct: purchased Millipore UK Ltd (assay service)
As to the kind of experiment: mTOR (h) kinase assay (33P-ATP, filter). The format is biochemical. On the procedure:
mTOR (h) is incubated with 50 mM HEPES pH 7.5, 1 mM EDTA, 0.01% Tween 20, 2 mg/mL substrate, 3 mM Manganese Chloride and [γ-^33P-ATP] (specific activity approx. 500 cpm/pmol, concentration as required). The reaction is initiated by the addition of the MnATP mix. After incubation for 40 minutes at room temperature, the reaction is stopped by the addition of 3% phosphoric acid solution. 10 μL of the reaction is then spotted onto a P30 filtermat and washed three times for 5 minutes in 75 mM phosphoric acid and once in methanol prior to drying and scintillation counting.
(§6) The kinase assays described herein were performed at Millipore UK Ltd, Dundee Technology Park, Dundee DD2 1SW, UK.

A further series has as its target T2, PI3K p110α/p85α (h) (Homo sapiens, UniProt P42336).
T2 construct: purchased Millipore UK Ltd (assay service)
As to the kind of experiment: PI3K p110α/p85α (h) non-radioactive HTRF assay. The format is biochemical. On the procedure: PI3K p110α/p85α (h) is incubated in assay buffer containing 10 μM phosphatidylinositol 4,5-bisphosphate and MgATP (concentration as required). The reaction is initiated by the addition of the ATP solution. After incubation for 30 minutes at room temperature, the reaction is stopped by the addition of stop solution containing EDTA and biotinylated phosphatidylinositol-3,4,5-trisphosphate. Finally, detection buffer is added, which contains europium-labelled anti-GST monoclonal antibody, GST-tagged GRP1 PH domain and streptavidin allophycocyanin. The plate is then read in timeresolved fluorescence mode and the homogenous time-resolved fluorescence (HTRF) signal is determined according to the formula HTRF=10000×(Em665 nm/Em620 nm).
as §6

For the next series, the system named is U87MG glioblastoma cells. As to the kind of experiment: Tumor xenograft model (U87MG), tumor growth inhibition. The format is in vivo, athymic nude mice. The note with it: 12 days. On the procedure:
The efficacy of compounds disclosed herein was evaluated in a standard murine model of tumorigenesis. Human tumor cells (U87MG glioblastoma cells from ATCC) were expended in culture, harvested, and injected subcutaneously onto the rear flank of 6-7 week old female athymic nude mice (BALB/cA nu/nu, Hunan SLAC Laboratory Animal, Co.) (n=6-10 for vehicle group and for each dosing group). When tumors reached a volume of 100-250 mm^3, animals were randomly divided into vehicle control (for example, 5% DMSO+70% Captisol® (30%), 7% HCl (pH1), 18% Captisol® (30%); or 7% DMSO, 7% HCl (pH1), 70% Captisol® (30%), 16% Captisol® (30%), or the like) and compound groups. Subsequent administration of compound by oral gavage begins anywhere from day 0 to day 15 post tumor cell challenge and generally continues with once a day for the duration of the experiment.
Progression of tumor growth is assessed by tumor volumes and recorded as a function of time. The long (L) and short (W) axes of the subcutaneous tumors were measured with calipers twice weekly, and the tumor volume (TV) calculated as (L×W^2)/2). TGI was calculated from the difference between the median tumor volumes of vehicle-treated and drug-treated mice, expressed as a percentage of the median tumor volume of the vehicle-treated control group, by the following relation:
Initial statistical analysis is done by repeated measures analysis of variance (RMANOVA), followed by Scheffe psot hoc testing for multiple comparisons. Vehicle alone (5% DMSO+70% Captisol® (30%), 7% HCl (pH1), 18% Captisol® (30%); or 7% DMSO, 7% HCl (pH1), 70% Captisol® (30%), 16% Captisol® (30%), or the like) is the negative control.

Read-outs that look alike come from different tables or passages of the source.

T2 sequence (P42336 whole entry): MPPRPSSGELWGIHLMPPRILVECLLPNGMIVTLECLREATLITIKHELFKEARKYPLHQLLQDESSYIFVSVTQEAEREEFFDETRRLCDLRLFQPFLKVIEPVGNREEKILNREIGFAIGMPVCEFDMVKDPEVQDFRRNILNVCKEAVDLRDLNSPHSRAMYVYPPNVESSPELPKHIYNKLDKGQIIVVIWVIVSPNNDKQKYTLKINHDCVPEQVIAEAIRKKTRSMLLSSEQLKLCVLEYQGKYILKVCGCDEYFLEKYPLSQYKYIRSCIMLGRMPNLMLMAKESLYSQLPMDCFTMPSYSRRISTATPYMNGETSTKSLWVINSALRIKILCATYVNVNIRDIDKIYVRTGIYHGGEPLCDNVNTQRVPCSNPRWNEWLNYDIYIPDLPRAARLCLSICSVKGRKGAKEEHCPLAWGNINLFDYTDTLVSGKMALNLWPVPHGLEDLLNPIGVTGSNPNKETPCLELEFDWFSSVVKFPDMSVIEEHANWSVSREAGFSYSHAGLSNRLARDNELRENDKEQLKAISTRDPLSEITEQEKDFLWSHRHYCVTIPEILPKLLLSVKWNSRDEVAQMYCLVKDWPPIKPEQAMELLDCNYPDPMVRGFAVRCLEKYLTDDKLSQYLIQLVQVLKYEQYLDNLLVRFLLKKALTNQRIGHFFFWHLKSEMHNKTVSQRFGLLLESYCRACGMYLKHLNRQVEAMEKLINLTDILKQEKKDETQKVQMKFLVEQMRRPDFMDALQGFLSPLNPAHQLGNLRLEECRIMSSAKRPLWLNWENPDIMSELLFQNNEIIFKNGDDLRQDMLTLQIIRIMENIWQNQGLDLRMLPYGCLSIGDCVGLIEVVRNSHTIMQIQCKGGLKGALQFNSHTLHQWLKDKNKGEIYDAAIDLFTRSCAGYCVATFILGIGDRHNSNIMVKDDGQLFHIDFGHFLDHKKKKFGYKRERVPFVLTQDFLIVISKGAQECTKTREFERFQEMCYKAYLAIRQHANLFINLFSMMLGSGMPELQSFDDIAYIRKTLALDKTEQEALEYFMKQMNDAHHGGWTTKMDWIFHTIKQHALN
T2 sequence (P27986 whole entry partner): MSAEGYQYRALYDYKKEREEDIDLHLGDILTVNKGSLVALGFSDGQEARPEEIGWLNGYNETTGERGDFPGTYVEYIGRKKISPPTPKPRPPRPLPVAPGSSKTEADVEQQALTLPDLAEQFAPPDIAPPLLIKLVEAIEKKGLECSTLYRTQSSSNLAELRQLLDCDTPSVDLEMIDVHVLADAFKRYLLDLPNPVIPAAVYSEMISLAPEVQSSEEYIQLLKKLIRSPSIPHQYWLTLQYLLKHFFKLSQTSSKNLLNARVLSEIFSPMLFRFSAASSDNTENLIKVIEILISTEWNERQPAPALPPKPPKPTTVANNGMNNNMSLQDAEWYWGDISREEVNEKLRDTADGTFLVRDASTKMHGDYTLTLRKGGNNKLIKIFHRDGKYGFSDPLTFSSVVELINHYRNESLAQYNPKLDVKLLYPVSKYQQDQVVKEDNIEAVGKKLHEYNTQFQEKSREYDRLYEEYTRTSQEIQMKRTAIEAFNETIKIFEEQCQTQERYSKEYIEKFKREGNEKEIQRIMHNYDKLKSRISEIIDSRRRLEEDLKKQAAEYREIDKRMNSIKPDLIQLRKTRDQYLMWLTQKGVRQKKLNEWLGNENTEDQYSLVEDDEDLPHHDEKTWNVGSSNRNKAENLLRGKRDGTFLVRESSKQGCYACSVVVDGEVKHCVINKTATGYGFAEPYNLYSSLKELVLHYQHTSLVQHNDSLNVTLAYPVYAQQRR

One may read the CLint scaled as the capacity of the preparation to metabolise the compound, expressed as a volume cleared per time. For orientation: AUC(0-t) means the area under the concentration-time curve up to a stated or last time point. A higher AUC(0-t) goes with high exposure. The IC50 is the concentration at which inhibition is half-maximal. `C#Cc1cnc2ccc(-c3cnc(OC)c(NS(=O)(=O)c4ccc(F)cc4)c3)nn12` [Ex. 1, N-(5-(3-ethynylimidazo[1,2-b]pyridazin-6-yl)-2-methoxypyridin-3-yl)-4-fluorobenzenesulfonamide]: in series [1], the half-life at 5 μM was found to be 2.69 h and the CLint scaled at 5 μM is 10.8 mL/min/kg. For the same compound, in series [2], the half-life at 5 μM stood at 1.62 h and the CLint scaled at 5 μM is 25.5 mL/min/kg. The F in series [3] (iv dose 1 mg/kg) is reported as 96.0%. Further, in series [3] (iv dosing 1 mg/kg), the Cl/F turned out to be 2.33 mL/min/kg, the AUC(0-t) came to 6540 ng·h/mL, the half-life was 6.39 h and the Vd was 1 L/kg. This compound also came in with an IC50 against mTOR (h) of 23 nM. Besides, the IC50 at PI3K p110α/p85α (h) turned out to be 14 nM.
Turning to `COc1ncc(-c2ccc3ncc(C#CC(C)O)n3n2)cc1NS(=O)(=O)c1ccc(F)cc1` (centres unmarked) [Ex. 3, 4-fluoro N (5 (3 (3 hydroxybut-1-yn-1-yl)imidazo[1,2-b]pyridazin-6-yl)-2-methoxypyridin-3-yl)benzenesulfonamide], in series [1], the half-life at 5 μM turned out to be 2.4 h and the CLint scaled at 5 μM is 12.1 mL/min/kg. Besides, in series [2], the half-life at 5 μM was found to be 0.843 h and the CLint scaled at 5 μM is 49.1 mL/min/kg. The same compound showed a F in series [3] (iv dose 2 mg/kg) of 61.5%. Further, in series [3] (iv dosing 2 mg/kg), the Cl/F amounted to 1.2 mL/min/kg, the AUC(0-t) was 29000 ng·h/mL, the half-life is 3.11 h and the Vd was 0.16 L/kg. For the same compound, the IC50 against mTOR (h) amounted to 16 nM. Besides, the IC50 on PI3K p110α/p85α (h) came to 12 nM.
Consider `COc1ncc(-c2ccc3ncc(C#CC(C)(C)O)n3n2)cc1NS(=O)(=O)c1ccc(F)cc1` [Ex. 4, 4-fluoro-N-(5-(3-(3-hydroxy-3-methylbut-1-yn-1-yl)imidazo[1,2-b]pyridazin-6-yl)-2-methoxypyridin-3-yl)benzenesulfonamide], for which the half-life at 5 μM in series [1] came out at 1.87 h; in series [2], 0.666 h. The values for the CLint scaled at 5 μM in series [1] and in series [2] were 15.5 mL/min/kg and 62.1 mL/min/kg, respectively. The IC50 against mTOR (h) came to 19 nM; on PI3K p110α/p85α (h), 41 nM.
Compound `COc1ncc(-c2ccc3ncc(C#N)n3n2)cc1NS(=O)(=O)c1ccc(F)cc1` [Ex. 6, N-(5-(3-cyanoimidazo[1,2-b]pyridazin-6-yl)-2-methoxypyridin-3-yl)-4-fluorobenzenesulfonamide] had a F in series [3] (iv dose 1 mg/kg) of 123.7%. Moreover, in series [3] (iv dosing 1 mg/kg), the Cl/F stood at 5.5 mL/min/kg, the AUC(0-t) was 2660 ng·h/mL, the half-life was 3.7 h and the Vd stood at 1.25 L/kg. Moreover, the IC50 on PI3K p110α/p85α (h) was 4 nM. In the series with U87MG glioblastoma cells (0.3 mg/kg oral gavage), the “TGI % U87MG” value came out at 14%. The “TGI % U87MG” value in the series with U87MG glioblastoma cells (1 mg/kg oral gavage) was found to be 41%. For the same compound, the “TGI % U87MG” value with U87MG glioblastoma cells (3 mg/kg oral gavage) was determined as 71%.
With `C#Cc1cnc2ccc(-c3cnc(Cl)c(NS(=O)(=O)c4ccc(F)cc4)c3)nn12` [Ex. 7, N-(2-chloro-5-(3-ethynylimidazo[1,2-b]pyridazin-6-yl)pyridin-3-yl)-4-fluorobenzenesulfonamide], the F in series [3] (iv dose 2 mg/kg) was found to be 95.4%. Besides, in series [3] (iv dosing 2 mg/kg), the Cl/F stood at 0.67 mL/min/kg, the AUC(0-t) was found to be 48100 ng·h/mL, the half-life was 3.19 h and the Vd turned out to be 0.17 L/kg. At mTOR (h), this compound registered an IC50 of 24 nM. At PI3K p110α/p85α (h), the IC50 was found to be 20 nM.
As to `C#Cc1cnc2ccc(-c3cnc(OC)c(NS(=O)(=O)c4ccc(F)cc4F)c3)nn12` [Ex. 8, N-(5-(3-ethynylimidazo[1,2-b]pyridazin-6-yl)-2-methoxypyridin-3-yl)-2,4-difluorobenzenesulfonamide], in series [1], the half-life at 5 μM is 4.04 h and the CLint scaled at 5 μM is 7.17 mL/min/kg. In series [2], the half-life at 5 μM stood at 1.25 h and the CLint scaled at 5 μM is 33.2 mL/min/kg. For the same compound, in series [3] (iv dose 2 mg/kg), the F amounted to 115.1%. In addition, in series [3] (iv dosing 2 mg/kg), the Cl/F is 2.17 mL/min/kg, the AUC(0-t) stood at 16600 ng·h/mL, the half-life was 3.02 h and the Vd came to 0.37 L/kg. Moreover, the IC50 on mTOR (h) was 12 nM. The IC50 on PI3K p110α/p85α (h) stood at 6 nM.
As to `COc1ncc(-c2ccc3ncc(C#CC(C)O)n3n2)cc1NS(=O)(=O)c1ccc(F)cc1F` (centres unmarked) [Ex. 10, 2,4-difluoro-N-(5-(3-(3-hydroxybut-1-yn-1-yl)imidazo[1,2-b]pyridazin-6-yl)-2-methoxypyridin-3-yl)benzenesulfonamide], in series [1], the half-life at 5 μM stood at 8.79 h and the CLint scaled at 5 μM was 3.3 mL/min/kg. For the same compound, in series [2], the half-life at 5 μM is 4.66 h and the CLint scaled at 5 μM is 8.89 mL/min/kg. In series [3] (iv dose 2 mg/kg), this compound yielded an F of 79.88%. In series [3] (iv dosing 2 mg/kg), the Cl/F stood at 0.5 mL/min/kg, the AUC(0-t) amounted to 67000 ng·h/mL, the half-life was 4.27 h and the Vd was found to be 0.14 L/kg. For the same compound, the IC50 at PI3K p110α/p85α (h) was 3 nM. Besides, the “TGI % U87MG” value in the series with U87MG glioblastoma cells (1 mg/kg oral gavage) was found to be 32%. Further, in the series with U87MG glioblastoma cells (3 mg/kg oral gavage), the “TGI % U87MG” value came out at 44%. Also, in the series on U87MG glioblastoma cells (10 mg/kg oral gavage), the “TGI % U87MG” value amounted to 65%.

(Values after patent US9926324B2, “Heteroaromatic compounds as PI3 kinase modulators and methods of use” (Calitor Sciences, LLC, priority 2012, dated 2018).)
